Our source for the cell survival rate and IC50 values is patent US20210060016A1, “ANTICANCER AGENT” (JAPANESE FOUNDATION FOR CANCER RESEARCH, priority 2017, published 2021).

Experiment [1] concerns human colorectal cancer cell line COLO-320DM. Nature of the experiment: MTT assay, combination of test compound and other anticancer agents. The settings on record: Examples 9 to 14, COLO-320DM: test compound added at the concentration shown in FIGS. 9 to 14 to irinotecan (SN-38); survival with only irinotecan = 100%. The format is cell-based. Here is the method:
The ratio of residual cells in treatment of the human colorectal cancer cell line COLO-320DM with a combination of the compound prepared in each Compound Example (test compound or tankyrase inhibitory compound) and each of the anticancer agents was measured to evaluate the cell killing effect of the combination on the human colorectal cancer cell line COLO-320DM. The combinations of test compounds and anticancer agents are as follows.
(Example 8): combination of the compound prepared in Compound Example 5 and temozolomide, melphalan, gemcitabine, cytarabine (Ara-C), fluorouracil (5-FU), pemetrexed, mercaptopurine, methotrexate, irinotecan (SN-38), etoposide (VP-16), actinomycin D, daunorubicin, doxorubicin, bleomycin, mitoxantrone, oxaliplatin, carboplatin or cisplatin (Example 9): combination of the compound prepared in Compound Example 110 (G007-LK) and irinotecan (SN-38) (Example 10): combination of the compound prepared in Compound Example 11 and irinotecan (SN-38) (Example 11): combination of the compound prepared in Compound Example 19 and irinotecan (SN-38) (Example 12): combination of the compound prepared in Compound Example 101 and irinotecan (SN-38) (Example 13): combination of the compound prepared in Compound Example 1 and irinotecan (SN-38) (Example 14): combination of the compound prepared in Compound Example 113 and irinotecan (SN-38)
Commercially available compounds were used for temozolomide (manufactured by Sigma-Aldric), melphalan (manufactured by Signa-Aldrich), gemcitabine (Gemcitabine hydrochloride; manufactured by Sigma-Aldric), cytarabine (Cytosine β-D-arabinofuranoside (Ara-C); manufactured by Sigma-Aldrich), fluorouracil (5-Fluorouracil (5-FU); manufactured by Sigma-Aldrich), pemetrexed (Pemetrexed disodium heptahydrate; manufactured by Sigma-Aldrich), mercaptopurine (6-Mercaptopurine monohydrate; manufactured by Sigma-Aldrich), methotrexate (Methotrexate hydrate; manufactured by Sigma-Aldrich), irinotecan (7-Ethyl-10-hydroxycamptothecin (SN-38); manufactured by Sigma-Aldrich), etoposide (Etoposide (VP-16); manufactured by Enzo Life Sciences, Inc.), actinomycin D (manufactured by nacalai tesque), daunorubicin (Daunorubicin hydrochloride; Calbiochem), doxorubicin (Doxorubicin hydrochloride; manufactured by Sigma-Aldrich), bleomycin (Bleomycin sulfate; manufactured by Enzo Life Sciences, Inc.), mitoxantrone (Mitoxantrone dihydrochloride; manufactured by Sigma-Aldrich), oxaliplatin (manufactured by Sigma-Aldrich), carboplatin (manufactured by Sigma-Aldrich) and cisplatin (manufactured by Enzo Life Sciences, Inc.).
First, the human colorectal cancer cell line COLO-320DM was suspended in RPMI1640 medium (hereinafter, medium) containing inactivated 10% fetal bovine serum, and the cells were seeded in a 96-well microplate at 350 cells (75 μL) per well. The cells were subjected to stationary culture overnight in a CO2 incubator at 37° C. Thereafter, in Example 8, a medium (25 μL) containing a combination of the compound prepared in Compound Example 5 and each of the anticancer agents was added in triplicate in such a manner that the final concentrations of the test compound (compound prepared in Compound Example 5) were 0 nM or 30 nM and that the final concentrations of each anticancer agent were those shown in Table 14. In Examples 9 to 14, a medium (25 μL) containing a combination of the compound prepared in each of Compound Examples and each of the anticancer agents was added in triplicate in such a manner that the final concentrations of the test compound were 0 nM or those shown in FIGS. 9 to 14. As a control, 25 μL of a medium containing only dimethyl sulfoxide (DMSO) which is a solvent was added. […]
(Formazan colour is commonly taken as a measure of viable cells.)

A further experiment has as its target T1, tankyrase 1 (Homo sapiens, UniProt O95271).
T1 construct: tankyrase 1 (1,024-1, 327aa, SAM+PARP); made in house; host or cells: cell-free protein expression system
Nature of the experiment: Tankyrase inhibitory activity test (ELISA, auto-poly(ADP-ribosyl)ation), TNKS1. The format is biochemical. The settings on record: Flag-tagged tankyrase 1 (SAM+PARP), read-out: TNKS1 (inhibitory activity against tankyrase 1), IC50 rating. Here is the method: The enzymatic activity of tankyrase 1 and the enzymatic activity of tankyrase 2 were measured by the ELISA method based on assessment of auto-poly(ADP-ribosyl)ation to evaluate the tankyrase inhibitory activity of the compound prepared in each of Compound Examples (test compound) (inhibitory activity against tankyrase 1 (TNKS1) and inhibitory activity against tankyrase 2 (TNKS2)). First, Flag-tagged tankyrase 1 (1,024-1, 327aa, SAM+PARP) and tankyrase 2 (613-1, 116aa, ANK5+SAM+PARP) were synthesized with a cell-free protein expression system, and diluted with a Tris buffer solution (50 mM Tris-HCl (pH 8.0), 150 mM NaCl, 10% glycerol). 50 μL of the diluted tankyrase 1 or tankyrase 2 was added to a plate with an anti-FLAG M2 monoclonal antibody immobilized thereon (Anti-FLAG High-Sensitivity M2-Coated Plate) (Sigma-Aldrich), and the mixture was left to stand overnight at 4° C. Thereafter, the plate was washed four times with a PBS (PBST) buffer containing 0.1% TritonX-100.
Subsequently, the test compound diluted with an assay buffer (50 mM Tris-HCl (pH 8.0), 4 mM MgCl2, 0.2 mM DTT) (DMSO was used as a control) was added to each well of the plate, and the mixture was left to stand at room temperature for 10 minutes. Thereafter, a biotin-labeled NAD solution (225 μM NAD, 25 μM 6-Biotin-17-NAD (Travigen, Inc.)) was added and mixed as a donor substrate, and the mixture was reacted at 30° C. for 45 minutes. To blank wells was added distilled water instead of the biotin-labeled NAD solution. After the reaction, the plate was washed with a PBST buffer four times. Thereafter, HRP (horseradish peroxidase)-labeled streptavidin (Travigen, Inc.) was diluted with a PBS buffer by 1,000 times, and added to each well, and the mixture was reacted at room temperature for 20 minutes. The plate was washed with a PBST buffer four times, a chemiluminescent substrate solution TACS-Sapphire (Travigen, Inc.) was then added to each well, the mixture was reacted at room temperature for 20 minutes, and thechemiluminescence intensity was measured using a chemiluminescence measuring apparatus.
The residual enzymatic activity in the presence of the test compound was determined from the following expression. On the basis of the residual enzymatic activity at each of multiple concentrations of the test compound, the enzyme inhibitory activity was calculated in terms of a 50%-inhibition concentration (IC50 value) using data analysis software Origin (LightStone Corp.). Residual activity (%)={(chemiluminescence intensity with test compound added)−(chemiluminescence intensity of blank)}/{(chemiluminescence intensity of control)−(chemiluminescence intensity of blank))
(ELISA stands for enzyme-linked immunosorbent assay.)

The structures appear in SMILES notation.

T1 sequence (O95271 1024-1327): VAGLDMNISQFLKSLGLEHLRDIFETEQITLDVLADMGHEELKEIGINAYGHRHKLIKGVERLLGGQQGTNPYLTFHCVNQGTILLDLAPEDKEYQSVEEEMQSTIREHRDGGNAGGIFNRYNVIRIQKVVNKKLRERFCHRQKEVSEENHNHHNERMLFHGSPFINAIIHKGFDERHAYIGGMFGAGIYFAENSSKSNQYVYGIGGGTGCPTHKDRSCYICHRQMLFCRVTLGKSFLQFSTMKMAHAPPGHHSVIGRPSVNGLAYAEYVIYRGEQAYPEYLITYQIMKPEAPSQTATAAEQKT

With `CCOc1ccc(-c2n[nH]nc2[C@H]2NC(=O)c3cccc(C)c3N2)cc1` [Compound Example 101, (2R)-2-[5-(4-Ethoxyphenyl)-2H-1,2,3-triazol-4-yl]-8-methyl-2,3-dihydro-1H-quinazolin-4-one], in experiment [1], the cell survival rate entry was “about 50%”. Further, the IC50 on tankyrase 1 is < 20 nM.

`COc1ccc(-c2c[nH]nc2C2NC(=O)c3cccc(C)c3N2)cc1` (stereo not shown) [Compound Example 113, 2-[4-(4-Methoxyphenyl)-1H-pyrazol-3-yl]-8-methyl-2,3-dihydro-1H-quinazolin-4-one]: in experiment [1], the cell survival rate entry is reported as “about 50%”. Besides, the IC50 at tankyrase 1 was < 20 nM.

What is called IC50 is the concentration needed to halve the response being measured.
